Ends that are not written are not given here. * marks the point of attachment. 5FAM = O=C1OC2(c3ccc(O)cc3Oc3cc(O)ccc32)c2ccc(C(=O)*)cc21
Tests used:
skeletal muscle = assay: Skeletal muscle healing and disuse atrophy in older mice; format: in vivo; conditions: high doses
Excerpt: (§1) The inventors recently discovered functional mitochondrial Angiotensin receptors (mtAT1R and mtAT2R) that shift to an increased mtAT1R/mtAT2R ratio with aging. One of the protective benefits of Angiotensin (Ang) receptor type 1 (AT1R) blockers, such as Losartan (LOS), arises from its systemic effects on blood pressure and remodelling. […] Therefore, angiotensin receptor blockers such as Losartan have utility beyond hypertension treatment; angiotensin receptor blockers can be used in the treatment of conditions relevant to older adults.

mitochondrial function = assay: Effect of Losartan on mitochondrial function
Excerpt: as §1

[1] = system: mitochondrial membrane potential; assay: Quantification of mitochondrial membrane potential based on TMRE localization in cardiac cells (FIG. 8); format: cell-based; conditions: treated vs control, FIG. 8 panels E and F
Excerpt: FIG. 8 consists of panels A-J. Panels A and B are images showing quantification of mitochondrial membrane potential based on TMRE localization in control (panel A) and MTS1-Ls-5-FAM-treated (panel B) cardiac cells. TMRE localizes in the mitochondria, and based on the intensity of the TMRE dye, the mitochondrial membrane potential can be calculated (panel C).

[2] = system: mitochondria of cardiac cells; assay: Co-localization with mitochondria of cardiac cells (FIG. 7); format: cell-based
mitochondria = assay: Confocal fluorescence microscopy of cellular localization of the conjugate in rat cells (FIG. 3); format: cell-based
Experimental: FIG. 3 contains confocal fluorescence microscopy images of rat liver cells incubated with MTS1-Ls-5-FAM for 24 hrs.
The MTS1-Ls-5-FAM conjugate was transfected into rat cells and incubated for 24 hours before confocal fluorescence microscopy was performed to ascertain cellular localization. Cells were co-stained with Mitotracker-Red and Hoescht 33342 for the mitochondria and nuclei, respectively.

| Compound | disuse atrophy (skeletal muscle) | skeletal muscle healing (skeletal muscle) | mitochondrial function (mitochondrial function) | maximum TMRE intensity per pixel [1] | co-localization with mitochondria (images) ([2]; FIG. 7 panels A and B) | co-localization with mitochondria by Pearson coefficient ([2]; relative to the scrambled MTS1-Ls-5-FAM, FIG. 7 panel C) | co-localization with mitochondria by Mander's coefficient ([2]; relative to the scrambled MTS1-Ls-5-FAM, FIG. 7 panel D) | localization of the conjugate with the mitochondria (mitochondria; rat cells, incubated 24 hours, co-stained with Mitotracker-Red and Hoescht 33342) | localization in merged confocal image (mitochondria; rat liver cells incubated 24 hrs, FIG. 3 panel (d)) |
| --- | --- | --- | --- | --- | --- | --- | --- | --- | --- |
| CCCCc1nc(Cl)c(CO)n1Cc1ccc(-c2ccccc2-c2nn[nH]n2)cc1 [LOS, Losartan] | prevent disuse atrophy | accelerate skeletal muscle healing | improved | – | – | – | – | – | – |
| MTS1-Ls-5-FAM (MLRAALSTARRGPRLSRLLCK(5FAM); not fully specified (C-terminus); printed as MLRAALSTARRGPRLSRLLCK(Mtt); also: losartan conjugated, site not given here) | – | – | – | no significant difference | positive co-localization | significantly more co-localized | significantly more co-localized | greater than 80% | localization of MTS1-Ls-5-FAM within the mitochondria |
